Measurements from ChEMBL document CHEMBL4706488, “Design, synthesis and biological evaluation of 2-amino-4-(1,2,4-triazol)pyridine derivatives as potent EGFR inhibitors to overcome TKI-resistance” (Eur J Med Chem, 2020).
Calls of active or inactive are those of the source. The rule behind the calls is not given here.

Legend:
A-431 = experiment: cells; format: functional, cell-based; details: Homo sapiens;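 also: antiproliferative test in A-431 cells carrying wild-type EGFR, with cell growth inhibition read by MTT assay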
Description: Antiproliferative activity against human A-431 cells harboring wild type EGFR assessed as inhibition of cell growth by MTT assay

NCI-H1975 [1] = experiment: cells; format: functional, cell-based; details: Homo sapiens
[2] = target: Epidermal growth factor receptor (Homo sapiens, UniProt P00533); experiment: biochemical; format: cell-based, Sf21
Description: Inhibition of wild type N-terminal GST-tagged human EGFR cytoplasmic domain (669 to 1210 residues) expressed in baculovirus infected Sf21 cells using biotin-labeled TK substrate preincubated for 30 mins followed by substrate and ATP addition at Km concentration and further incubated for 20 mins by HTRF assay

[3] = target: Epidermal growth factor receptor (Homo sapiens, UniProt P00533, L858R/T790M); experiment: biochemical; format: cell-based, Sf21
U-87 MG = experiment: cells; format: functional, cell-based, U-87MG ATCC; details: Homo sapiens;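 also: antiproliferative effect on U-87 MG cells carrying wild-type EGFR, growth inhibition read out by MTT assay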
Description: Antiproliferative activity against human U-87MG cells harboring wild type EGFR assessed as inhibition of cell growth by MTT assay

cells = format: functional, tissue-based; details: Homo sapiens, U87MG Human EGFR vIII
Description: Antiproliferative activity against human U87MG Human EGFR vIII cells overexpressing EGFRvIII mutant assessed as inhibition of cell growth by MTT assay

U87MG Human EGFR vIII = experiment: Induction of apoptosis in human U87MG Human EGFR vIII cells by annexinV-FITC/propidium iodide staining based flow cytometry analysis; format: functional, cell-based
NCI-H1975 [4] = experiment: Induction of apoptosis in human NCI-H1975 cells assessed as late apoptotic cells at 5 uM by annexinV-FITC/propidium iodide staining based flow cytometry analysis (reference value: 0.42 %); format: functional
[5] = Potency index, ratio of lazertinib IC50 to test compound IC50 for antiproliferative activity against human U87MG Human EGFR vIII cells overexpressing EGFRvIII mutant assessed as inhibition of cell proliferation by MTT assay; format: functional
[6] = Potency index, ratio of osimertinib IC50 to test compound IC50 for antiproliferative activity against human U87MG Human EGFR vIII cells overexpressing EGFRvIII mutant assessed as inhibition of cell proliferation by MTT assay; format: functional
NCI-H1975 [7] = experiment: Induction of apoptosis in human NCI-H1975 cells assessed as necrotic cells at 10 uM by annexinV-FITC/propidium iodide staining based flow cytometry analysis (reference value: 0.44 %); format: functional
NCI-H1975 [8] = experiment: Induction of apoptosis in human NCI-H1975 cells assessed as early apoptotic cells at 20 uM by annexinV-FITC/propidium iodide staining based flow cytometry analysis (reference value: 0.53 %); format: functional
NCI-H1975 [9] = experiment: Induction of apoptosis in human NCI-H1975 cells assessed as necrotic cells at 20 uM by annexinV-FITC/propidium iodide staining based flow cytometry analysis (reference value: 0.44 %); format: functional
NCI-H1975 [10] = experiment: Induction of apoptosis in human NCI-H1975 cells assessed as live cells at 10 uM by annexinV-FITC/propidium iodide staining based flow cytometry analysis (reference value: 98.6 %); format: functional
NCI-H1975 [11] = experiment: Induction of apoptosis in human NCI-H1975 cells assessed as late apoptotic cells at 20 uM by annexinV-FITC/propidium iodide staining based flow cytometry analysis (reference value: 0.42 %); format: functional
NCI-H1975 [12] = experiment: Induction of apoptosis in human NCI-H1975 cells assessed as live cells at 20 uM by annexinV-FITC/propidium iodide staining based flow cytometry analysis (reference value: 98.6 %); format: functional
NCI-H1975 [13] = experiment: Induction of apoptosis in human NCI-H1975 cells assessed as early apoptotic cells at 10 uM by annexinV-FITC/propidium iodide staining based flow cytometry analysis (reference value: 0.53 %); format: functional
NCI-H1975 [14] = experiment: Induction of apoptosis in human NCI-H1975 cells assessed as necrotic cells at 5 uM by annexinV-FITC/propidium iodide staining based flow cytometry analysis (reference value: 0.44 %); format: functional
NCI-H1975 [15] = experiment: Induction of apoptosis in human NCI-H1975 cells assessed as early apoptotic cells at 5 uM by annexinV-FITC/propidium iodide staining based flow cytometry analysis (reference value: 0.53 %); format: functional
NCI-H1975 [16] = experiment: Induction of apoptosis in human NCI-H1975 cells assessed as late apoptotic cells at 10 uM by annexinV-FITC/propidium iodide staining based flow cytometry analysis (reference value: 0.42 %); format: functional
NCI-H1975 [17] = experiment: Induction of apoptosis in human NCI-H1975 cells assessed as live cells at 5 uM by annexinV-FITC/propidium iodide staining based flow cytometry analysis (reference value: 98.6 %); format: functional

Chain of Epidermal growth factor receptor (Homo sapiens, UniProt P00533) (P00533 whole entry): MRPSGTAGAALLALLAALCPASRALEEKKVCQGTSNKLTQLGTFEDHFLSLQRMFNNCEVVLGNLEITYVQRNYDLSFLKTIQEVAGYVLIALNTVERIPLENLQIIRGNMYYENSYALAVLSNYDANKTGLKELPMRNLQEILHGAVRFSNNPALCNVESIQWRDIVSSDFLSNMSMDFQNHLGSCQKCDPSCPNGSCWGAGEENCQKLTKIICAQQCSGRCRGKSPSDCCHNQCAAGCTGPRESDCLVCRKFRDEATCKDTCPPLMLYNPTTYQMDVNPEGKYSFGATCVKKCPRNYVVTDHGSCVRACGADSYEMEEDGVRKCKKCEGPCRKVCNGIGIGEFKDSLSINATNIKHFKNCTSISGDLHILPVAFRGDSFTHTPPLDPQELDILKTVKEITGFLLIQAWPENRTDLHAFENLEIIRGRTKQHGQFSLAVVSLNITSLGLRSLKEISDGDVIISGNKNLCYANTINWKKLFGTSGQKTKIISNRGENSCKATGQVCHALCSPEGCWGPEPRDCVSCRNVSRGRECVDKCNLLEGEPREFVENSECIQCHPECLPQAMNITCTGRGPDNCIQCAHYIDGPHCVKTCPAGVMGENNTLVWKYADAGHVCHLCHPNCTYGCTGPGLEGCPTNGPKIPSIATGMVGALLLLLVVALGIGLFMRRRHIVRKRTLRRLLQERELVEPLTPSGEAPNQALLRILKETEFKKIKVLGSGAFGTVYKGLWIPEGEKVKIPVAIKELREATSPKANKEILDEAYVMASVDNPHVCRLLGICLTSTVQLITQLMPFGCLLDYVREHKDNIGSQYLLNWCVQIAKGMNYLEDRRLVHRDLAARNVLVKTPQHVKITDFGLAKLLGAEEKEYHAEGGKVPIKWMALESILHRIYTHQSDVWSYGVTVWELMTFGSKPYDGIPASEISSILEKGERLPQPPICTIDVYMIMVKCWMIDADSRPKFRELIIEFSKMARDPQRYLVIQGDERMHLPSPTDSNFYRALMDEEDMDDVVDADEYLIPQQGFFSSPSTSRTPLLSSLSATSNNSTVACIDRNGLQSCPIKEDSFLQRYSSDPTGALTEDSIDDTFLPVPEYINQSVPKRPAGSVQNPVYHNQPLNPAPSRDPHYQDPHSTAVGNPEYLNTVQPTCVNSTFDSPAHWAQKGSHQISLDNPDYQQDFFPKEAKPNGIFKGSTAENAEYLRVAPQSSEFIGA
Chain of Epidermal growth factor receptor (Homo sapiens, UniProt P00533, L858R/T790M) (P00533 25-1210 T790M/L858R limits assumed): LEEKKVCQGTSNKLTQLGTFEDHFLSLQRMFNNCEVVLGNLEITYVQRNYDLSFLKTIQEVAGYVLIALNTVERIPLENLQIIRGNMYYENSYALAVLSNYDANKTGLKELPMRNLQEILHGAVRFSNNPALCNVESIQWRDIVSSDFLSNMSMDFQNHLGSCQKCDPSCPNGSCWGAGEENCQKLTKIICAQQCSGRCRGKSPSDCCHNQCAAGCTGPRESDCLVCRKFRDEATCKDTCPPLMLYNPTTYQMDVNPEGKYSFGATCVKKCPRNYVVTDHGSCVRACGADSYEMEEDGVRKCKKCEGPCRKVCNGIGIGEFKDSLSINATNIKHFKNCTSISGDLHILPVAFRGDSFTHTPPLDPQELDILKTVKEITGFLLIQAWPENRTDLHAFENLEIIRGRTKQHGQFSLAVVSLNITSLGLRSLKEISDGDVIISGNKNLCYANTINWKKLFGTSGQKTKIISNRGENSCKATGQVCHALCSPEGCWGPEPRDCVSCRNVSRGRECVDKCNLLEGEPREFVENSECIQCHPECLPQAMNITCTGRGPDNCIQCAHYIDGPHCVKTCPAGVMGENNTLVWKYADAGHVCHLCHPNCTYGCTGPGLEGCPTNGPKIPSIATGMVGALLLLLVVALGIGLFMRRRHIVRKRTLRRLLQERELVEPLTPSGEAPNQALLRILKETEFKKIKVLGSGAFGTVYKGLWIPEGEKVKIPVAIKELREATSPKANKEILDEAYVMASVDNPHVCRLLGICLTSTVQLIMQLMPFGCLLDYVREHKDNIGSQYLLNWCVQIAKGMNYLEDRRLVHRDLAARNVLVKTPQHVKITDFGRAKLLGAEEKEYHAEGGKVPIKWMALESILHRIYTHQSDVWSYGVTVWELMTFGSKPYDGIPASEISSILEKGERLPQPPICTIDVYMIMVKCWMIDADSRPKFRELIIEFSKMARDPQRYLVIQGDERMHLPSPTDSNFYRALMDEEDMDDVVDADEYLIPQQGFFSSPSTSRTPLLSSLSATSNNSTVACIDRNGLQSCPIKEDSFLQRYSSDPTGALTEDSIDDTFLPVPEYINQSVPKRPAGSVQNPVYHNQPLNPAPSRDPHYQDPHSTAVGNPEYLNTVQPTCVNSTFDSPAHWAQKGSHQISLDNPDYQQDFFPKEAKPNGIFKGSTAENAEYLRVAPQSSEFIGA

Structure (SMILES): C=CC(=O)Nc1cc(Nc2cc(-n3c(SC)nnc3-c3ccc(F)cc3)ccn2)c(OC)cc1N1CCCN(C)CC1
- IC50 (A-431): 10.3 µM
- IC50 (NCI-H1975 [1]): 8.1 µM
- IC50 [2]: 0.333 µM
- IC50 [3]: 0.156 µM
- IC50 (U-87 MG): 6.97 µM
- IC50 (cells): 43.6 µM

Structure (SMILES): C=CC(=O)Nc1cc(Nc2cc(-n3c(SC)nnc3-c3ccc(F)cc3)ccn2)ccc1N(C)CCN(C)C
- Activity (U87MG Human EGFR vIII): inactive
- Activity (NCI-H1975 [4]): 2.77%
- Ratio IC50 [5]: 25
- IC50 (A-431): 6 µM
- IC50 (NCI-H1975 [1]): 5.3 µM
- Ratio IC50 [6]: 3
- Activity (NCI-H1975 [7]): 2.14%
- Activity (NCI-H1975 [8]): 18%
- Activity (NCI-H1975 [9]): 10.7%
- IC50 [2]: 0.156 µM
- Activity (NCI-H1975 [10]): 91.4%
- Activity (NCI-H1975 [11]): 39%
- IC50 [3]: 0.213 µM
- Activity (NCI-H1975 [12]): 32.3%
- Activity (NCI-H1975 [13]): 2.63%
- Activity (NCI-H1975 [14]): 0.92%
- Activity (NCI-H1975 [15]): 2.52%
- IC50 (U-87 MG): 2.4 µM
- Activity (NCI-H1975 [16]): 3.86%
- Activity (NCI-H1975 [17]): 93.8%
- IC50 (cells): 4.1 µM

Structure (SMILES): C=CC(=O)Nc1cc(Nc2nccc(-n3cc(CN(C)C)c(-c4ccccc4)n3)n2)c(OC)cc1N1CCOCC1 [LAZERTINIB]
- IC50 (A-431): 3.6 µM
- IC50 (NCI-H1975 [1]): < 1 µM
- IC50 [2]: 0.0346 µM
- IC50 [3]: 0.0027 µM
- IC50 (U-87 MG): 33.2 µM
- IC50 (cells): > 100 µM

Structure (SMILES): C=CC(=O)Nc1cccc(Nc2cc(-n3c(C)nnc3-c3ccc(F)cc3)ccn2)c1
- IC50 (A-431): 12.2 µM
- IC50 (NCI-H1975 [1]): 21.4 µM
- IC50 (U-87 MG): 51.6 µM
- IC50 (cells): 37.8 µM

Structure (SMILES): C=CC(=O)Nc1cc(Nc2cc(-n3c(SC)nnc3-c3ccc(F)cc3)ccn2)c(OC)cc1N1CCN(C2CCN(C)CC2)CC1
- IC50 (A-431): 9.9 µM
- IC50 (NCI-H1975 [1]): 14.9 µM
- IC50 (U-87 MG): 6.49 µM
- IC50 (cells): 25.5 µM

Structure (SMILES): C=CC(=O)Nc1cc(Nc2cc(-n3c(SC)nnc3-c3ccc(F)cc3)ccn2)c(OC)cc1N1CCC(N2CCN(C)CC2)CC1
- IC50 (A-431): 9.3 µM
- IC50 (NCI-H1975 [1]): 4.5 µM
- IC50 (U-87 MG): 3.6 µM
- IC50 (cells): 25.6 µM

Structure (SMILES): C=CC(=O)Nc1cc(Nc2cc(-n3c(SC)nnc3-c3ccc(F)cc3)ccn2)c(OC)cc1N1CCC(N2CCOCC2)CC1
- IC50 (A-431): 7 µM
- IC50 (NCI-H1975 [1]): 16.7 µM
- IC50 [3]: 0.112 µM
- IC50 (U-87 MG): 15.2 µM
- IC50 (cells): 20.2 µM

Structure (SMILES): C=CC(=O)Nc1cccc(Nc2cc(-n3c(CCCO)nnc3-c3ccc(F)cc3)ccn2)c1
- IC50 (A-431): 65.9 µM
- IC50 (NCI-H1975 [1]): > 100 µM
- IC50 [2]: 0.196 µM
- IC50 [3]: 0.143 µM
- IC50 (U-87 MG): 21.7 µM
- IC50 (cells): > 100 µM

Structure (SMILES): C=CC(=O)Nc1ccc(OC)c(Nc2cc(-n3c(SC)nnc3-c3ccc(F)cc3)ccn2)c1
- IC50 (A-431): 3.4 µM
- IC50 (NCI-H1975 [1]): 7.8 µM
- IC50 [2]: 0.179 µM
- IC50 [3]: 0.147 µM
- IC50 (U-87 MG): 4.5 µM
- IC50 (cells): 26.3 µM
